This note sets out measurements from patent publication US11001570B2, “6-amino-quinolinone compounds and derivatives as BCL6 inhibitors” (Boehringer Ingelheim International GmbH, priority 2016, dated 2021).

The target in this assay is T1, BCL6::BCOR (Homo sapiens, UniProt P41182, C67R/C84N/C8Q).
T1 construct: BCL6 (amino acids 5 to 129, with the following changes to the natural protein); made in house; host or cells: E. coli
As to the kind of experiment: BCL6::BCOR ULight TR-FRET assay. Format: binding. In outline: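 Biotin-Avi BCL6 (aa 5–129, C8Q/C67R/C84N; E. coli), 1 nM, preincubated 30 min RT with compound (11-point fivefold series, top 100 μM) in HEPES pH 7.3 buffer; then 100 nM ULight-BCOR peptide plus 0.75 nM streptavidin-Eu added, 240 min RT. TR-FRET read, normalized to DMSO controls with/without BCL6.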

Each structure is given as a SMILES string. pIC50: −log10 of the molar value.

`CNC(=O)COc1cc2cc(Nc3nc(N4CCC[C@@H](C(=O)N(C)C5CCN(C)CC5)C4)ncc3Cl)ccc2n(C)c1=O` [Compound I-170] showed a pIC50 of 8.10.
The compound `CN(C)C(=O)COc1cc2cc(Nc3nc(N4CCC(C(=O)N(C)C)CC4)ncc3Cl)ccc2n(C)c1=O` [Compound I-171] gave a pIC50 of 7.41.
The same measure for `C[C@@H]1C[C@H](C)CN(c2ncc(Cl)c(Nc3ccc4c(c3)cc(OCP(C)(C)=O)c(=O)n4C)n2)C1` [Compound I-172, 6-({5-chloro-2-[cis-3,5-dimethylpiperidin-1-yl]pyrimidin-4-yl}amino)-3-[(dimethylphosphoryl)-methoxy]-1-methyl-1,2-dihydroquinolin-2-one]: 6.73; for `C#CCNC(=O)COc1cc2cc(Nc3nc(N4CCC(C(=O)N(C)C)CC4)ncc3Cl)ccc2n(C)c1=O` [Compound I-175]: 8.00; for `C[C@@H]1C[C@H](C)CN(c2ccc(Cl)c(Nc3ccc4c(c3)cc(OCC(=O)O)c(=O)n4C)n2)C1` [Compound I-176, 2-{[6-({3-chloro-6-[cis-3,5-dimethylpiperidin-1-yl]pyridin-2-yl}amino)-1-methyl-2-oxo-1,2-dihydroquinolin-3-yl]oxy}acetic acid]: 6.97.
The same measure for `CNC(=O)COc1cc2cc(Nc3nc(N4C[C@H](C)C[C@H](C)C4)ccc3Cl)ccc2n(C)c1=O` [Compound I-177, 2-{[6-({3-chloro-6-[cis-3,5-dimethylpiperidin-1-yl]pyridin-2-yl}amino)-1-methyl-2-oxo-1,2-dihydroquinolin-3-yl]oxy}-N-methylacetamide]: 7.06.
The compound `CNC(=O)COc1cc2cc(Nc3cc(N4C[C@H](C)C[C@H](C)C4)ncc3Cl)ccc2n(C)c1=O` [Compound I-178, 2-{[6-({5-chloro-2-[cis-3,5-dimethylpiperidin-1-yl]pyridin-4-yl}amino)-1-methyl-2-oxo-1,2-dihydroquinolin-3-yl]oxy}-N-methylacetamide] showed a pIC50 of 7.66.
